The results in this text go back to ChEMBL document CHEMBL1127817, “Antitumor agents. 150. 2',3',4',5',5,6,7-substituted 2-phenyl-4-quinolones and related compounds: their synthesis, cytotoxicity, and inhibition of tubulin polymerization” (J Med Chem, 1994).

Assay [1] deals with Tubulin beta chain (Bos taurus, UniProt Q6B856). Kind of assay: Inhibition of tubulin polymerization. It counts as functional.
Assay [2] has as its system HCT-116. Kind of assay: In vitro inhibition of tumor cell growth of HCT116, colon cancer cell line. It counts as functional. Particulars: Homo sapiens.
In assay [3] the test system is DMS-114. As to the kind of experiment: In vitro inhibition of tumor cell growth of DMS114, a small-cell lung cancer cell line. Particulars: Homo sapiens.
The test system of assay [4] is NCI-H226. Kind of assay: In vitro inhibition of tumor cell growth of NCI-H226, a non small-cell lung cancer cell line. The following applies: Homo sapiens. It counts as functional.
Assay [5] has as its system SF-268. As to the kind of experiment: In vitro inhibition of tumor cell growth of SF-268, CNS tumor cell line. The class given is functional. Particulars: Homo sapiens.
The test system of assay [6] is SF-295. Kind of assay: In vitro inhibition of tumor cell growth of SF-295, CNS tumor cell line. The class given is functional. Particulars: Homo sapiens.
The subject of assay [7] is KM-20L2. Kind of assay: In vitro inhibition of tumor cell growth of KM20L2, colon cancer cell line. The class given is functional. The following applies: Homo sapiens.
The test system of assay [8] is OVCAR-3. As to the kind of experiment: In vitro inhibition of tumor cell growth of OVCAR-3, ovarian cancer cell line. The class given is functional. The following applies: Homo sapiens.
The subject of assay [9] is RXF 393. Kind of assay: In vitro inhibition of tumor cell growth of RXF-393, renal cancer cell line. The class given is functional. Particulars: Homo sapiens.
The test system of assay [10] is SK-MEL-5. As to the kind of experiment: In vitro inhibition of tumor cell growth of SK-Mel-5, melanoma cell line. It counts as functional. Particulars: Homo sapiens.

Each structure is given as a SMILES string.

Sequence of Tubulin beta chain (Q6B856 whole entry): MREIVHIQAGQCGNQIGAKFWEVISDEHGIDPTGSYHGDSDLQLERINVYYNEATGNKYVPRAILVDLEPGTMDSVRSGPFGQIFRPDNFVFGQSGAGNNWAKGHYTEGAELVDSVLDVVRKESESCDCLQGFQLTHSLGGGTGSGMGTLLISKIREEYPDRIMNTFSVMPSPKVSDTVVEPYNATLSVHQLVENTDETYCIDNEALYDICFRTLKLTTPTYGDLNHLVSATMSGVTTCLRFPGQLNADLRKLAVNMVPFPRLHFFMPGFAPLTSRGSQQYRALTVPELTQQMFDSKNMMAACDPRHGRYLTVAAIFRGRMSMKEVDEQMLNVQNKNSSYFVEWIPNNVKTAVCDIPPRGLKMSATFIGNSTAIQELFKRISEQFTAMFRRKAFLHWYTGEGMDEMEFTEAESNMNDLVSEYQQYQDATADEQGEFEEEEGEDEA

As usually defined, the IC50 is the point on the concentration scale where inhibition reaches its midpoint. Read a high IC50 as a need for much substance. The term GI50 denotes the concentration at which growth is held to half of that of the control. Read a high GI50 as lower sensitivity of the cells. With `COc1ccc(-c2cc(O)c3cc4c(cc3n2)OCO4)c(OC)c1OC`, the IC50 in assay [1] was greater than 40 µM. Also, the GI50 in [2] was greater than 100 µM; in assay [3], 29.5 µM; in [4], greater than 100 µM; in [5], greater than 100 µM; in [6], 75.9 µM; in [7], greater than 100 µM. The GI50 in [8], in assay [9] and in assay [10] was greater than 100 µM throughout.
Compound `Oc1cc(-c2ccccn2)nc2cccc(F)c12` returned an IC50 in assay [1] greater than 40 µM. In addition, the GI50 in assay [3], in [4], in assay [6], in [7], in assay [8] and in assay [9] was greater than 100 µM in each case. Besides, the GI50 in [10] is 61.7 µM.
In turn, `COc1ccc(-c2cc(O)c3cc(OC)c(OC)cc3n2)cc1OC` had an IC50 in assay [1] greater than 40 µM. The GI50 is greater than 100 µM in assay [2]; greater than 100 µM in assay [4]; greater than 100 µM in assay [5]; greater than 100 µM in assay [6]; greater than 100 µM in assay [8]; 67.6 µM in assay [9]. This compound gave a GI50 in assay [10] greater than 100 µM.
In turn, `Oc1cc(-c2ccccc2)nc2cc3c(cc12)OCO3` gave an IC50 in [1] of 0.63 µM. Further, the GI50 in [2] is 0.0708 µM; in [4], 0.316 µM; in [5], 0.0302 µM; in assay [6], 0.191 µM; in assay [7] it was 0.182 µM; in assay [8] it was 0.162 µM. Moreover, the values for the GI50 in assay [9] and in assay [10] were 0.112 µM and 0.0355 µM, respectively.
`CN(C)c1ccc(-c2cc(O)c3cc4c(cc3n2)OCO4)cc1`: the IC50 in assay [1] is greater than 40 µM. The GI50 in assay [2], in assay [3], in [4], in assay [5], in [6] and in assay [7] was greater than 100 µM throughout. In addition, the GI50 in [8], in assay [9] and in assay [10] was greater than 100 µM in each case.
`COc1ccc(-c2cc(O)c3ccc(F)cc3n2)cc1` registered an IC50 in assay [1] greater than 40 µM. Also, the GI50 in [2], in [3], in [4], in assay [5], in [6] and in [7] was greater than 100 µM in each case. Besides, the GI50 in assay [8], in [9] and in [10] was greater than 100 µM throughout.
Consider `CN(C)c1ccc(-c2cc(O)c3ccccc3n2)cc1`, for which the IC50 in assay [1] was greater than 40 µM. Further, the GI50 in assay [2], in assay [3], in [4], in assay [5], in assay [6] and in assay [7] was greater than 100 µM in each case. Besides, the GI50 in assay [8] and in assay [9] was greater than 100 µM in each case.
On to `Oc1cc(/C=C/c2ccccc2)nc2cc3c(cc12)OCO3`, for which the IC50 in [1] was 2.3 µM. In addition, the GI50 in [2] is 2.82 µM; in assay [4], 2.88 µM; in assay [5], 7.08 µM; in [6] it was 3.02 µM; in assay [8], 2.24 µM; in [9], 4.27 µM. In [10], this compound gave a GI50 of 2.19 µM.
On to `COc1ccc2c(c1)CCc1c-2nc2cc3c(cc2c1O)OCO3`, for which the GI50 in [2], in assay [4], in assay [5], in assay [6], in assay [7] and in assay [8] was greater than 100 µM in each case. Further, the GI50 in [9] and in assay [10] was greater than 100 µM each time.
`Oc1cc(-c2ccc3c(c2)OCO3)nc2cc3c(cc12)OCO3` had an IC50 in [1] of 1.1 µM. The concentration for 50% growth inhibition (GI50) in assay [2] is 38 µM; in [3] it was 24 µM; in assay [4] it was 39.8 µM; in assay [5], 46.8 µM; in assay [6], 29.5 µM; in assay [7], 26.3 µM. The GI50 was 19.5 µM in assay [8], 20.9 µM in [9] and 25.1 µM in assay [10].
Consider `Oc1cc(-c2ccccn2)nc2ccc(Cl)cc12`, for which the IC50 in [1] is greater than 40 µM. Moreover, the GI50 in assay [2] was 26.3 µM; in assay [3] it was 13.8 µM; in assay [4] it was 46.8 µM; in assay [5], 23.4 µM; in [6], 51.3 µM; in assay [7], 39.8 µM. For the same compound, the GI50 was 63.1 µM in [8], 33.9 µM in assay [9] and 26.3 µM in [10].
Compound `Oc1c2c(nc3cc4c(cc13)OCO4)-c1ccccc1CCC2` showed an IC50 in [1] greater than 40 µM. For the same compound, the GI50 in assay [2] was 28.2 µM; in assay [4], greater than 100 µM; in [5], greater than 100 µM; in assay [6] it was 19.5 µM; in assay [8], greater than 100 µM; in assay [9], greater than 100 µM. In addition, in assay [10], the 50% growth inhibitory concentration (GI50) was greater than 100 µM.
As to `COc1ccc2nc(-c3ccccn3)cc(O)c2c1`, the half-inhibitory concentration (IC50) in assay [1] is greater than 40 µM. Moreover, the GI50 was 33.9 µM in assay [2]; 22.4 µM in assay [3]; 36.3 µM in assay [4]; 24 µM in [5]; 51.3 µM in assay [6]; 35.5 µM in [7]. Besides, the GI50 in [8] is greater than 100 µM; in assay [9] it was 2.51 µM; in assay [10], 28.2 µM.
Compound `COc1ccc(-c2cc(O)c3cc4c(cc3n2)OCO4)cc1` gave an IC50 in assay [1] greater than 40 µM. The GI50 in assay [2] was greater than 100 µM; in assay [3] it was greater than 100 µM; in [4], 28.8 µM; in assay [5], greater than 100 µM; in assay [6] it was greater than 100 µM; in assay [7], greater than 100 µM. Besides, the values for the GI50 in assay [8], in assay [9] and in assay [10] were greater than 100 µM, 38 µM and greater than 100 µM, respectively.
For the compound `COc1ccc(OC)c(-c2cc(O)c3cc4c(cc3n2)OCO4)c1`, the IC50 in assay [1] came to 5.5 µM. Further, the GI50 in assay [2] is 3.24 µM; in assay [3], 5.01 µM; in assay [4], 6.31 µM; in assay [5], 8.32 µM; in assay [6], 6.61 µM; in assay [7] it was 6.92 µM. Further, the GI50 in [8] was 4.9 µM; in assay [9] it was 3.02 µM; in assay [10] it was 4.07 µM.
As to `COc1cc2nc(-c3ccccc3)cc(O)c2cc1OC`, in [1], the midpoint of inhibition, the IC50, lay at 18 µM.
As to `CN(C)c1cccc(-c2cc(O)c3ccccc3n2)c1`, in assay [1], 1.5 µM corresponded to half-maximal inhibition (IC50). Also, the GI50 in assay [2] is 58.9 µM; in assay [3], 45.7 µM; in [4], 29.5 µM; in [5], 75.9 µM; in [6] it was 28.2 µM; in [7] it was 34.7 µM. The GI50 is 41.7 µM in assay [8] and 35.5 µM in assay [9].
In turn, `COc1ccc(-c2cc(O)c3cc(OC)ccc3n2)cc1` returned an IC50 in [1] greater than 40 µM. The GI50 was greater than 100 µM in [2]; greater than 100 µM in assay [3]; greater than 100 µM in assay [4]; 36.3 µM in assay [5]; greater than 100 µM in assay [7]; greater than 100 µM in [8]. Further, the GI50 in assay [9] and in assay [10] was greater than 100 µM in each case.
Take `Oc1cc(-c2ccc(Oc3ccccc3)cc2)nc2cc3c(cc12)OCO3`: in [1], the IC50 is greater than 40 µM. The GI50 in [2], in [3], in [5], in [6], in assay [7] and in assay [8] was greater than 100 µM in each case. Besides, the concentration for 50% growth inhibition (GI50) in assay [9] and in assay [10] was greater than 100 µM in each case.
For `COc1cc2nc(-c3cccc(N(C)C)c3)cc(O)c2cc1OC`, in assay [1], inhibition was half-maximal at 15 µM (IC50). For the same compound, the GI50 in [2] is 5.01 µM; in [3] it was 4.79 µM; in assay [4], 1.86 µM; in assay [5], 5.25 µM; in assay [6], 1.95 µM; in assay [7] it was 2 µM. Further, the GI50 was less than 1 µM in assay [8] and 2.24 µM in assay [9].
`COc1cccc(-c2cc(O)c3ccccc3n2)c1` displayed an IC50 in assay [1] of 1.4 µM. Further, the GI50 in assay [2] is 5.75 µM; in assay [3] it was 5.62 µM; in assay [4], 2.82 µM; in assay [5] it was 6.76 µM; in assay [6], 2.29 µM; in assay [7] it was 8.51 µM. Besides, the GI50 was 5.5 µM in assay [8] and 6.61 µM in assay [9].
Take `COc1cc(-c2cc(O)c3ccccc3n2)cc(OC)c1OC`: in assay [1], the IC50 is greater than 40 µM. The GI50 in assay [2], in assay [3], in [4], in assay [5], in assay [6] and in assay [7] was greater than 100 µM in each case. For the same compound, the GI50 in assay [8] and in [9] was greater than 100 µM throughout.
In the case of `COc1cccc(-c2cc(O)c3cc(OC)c(OC)cc3n2)c1`, the IC50 in assay [1] turned out to be 4.3 µM. Moreover, the GI50 in assay [2] was 58.9 µM; in assay [3], 55 µM; in assay [4], 21.4 µM; in [5], 50.1 µM; in assay [6], 40.7 µM; in assay [7] it was 24 µM. Also, the GI50 in assay [8] was 33.9 µM; in assay [9] it was 33.1 µM.
In turn, `Oc1cc(-c2ccccn2)nc2cc(F)ccc12` displayed a concentration for half-maximal inhibition (IC50) in [1] greater than 40 µM. The GI50 in assay [2] was 43.7 µM; in assay [3], 52.5 µM; in [4], greater than 100 µM; in assay [5], 29.5 µM; in assay [6], greater than 100 µM; in assay [7], greater than 100 µM. In assay [10], the GI50 is 44.7 µM.
As to `COc1ccc(CCc2cc(OC)c(OC)c(OC)c2)cc1O`, in [1], 0.63 µM corresponded to half-maximal inhibition (IC50). This lies in the sub-micromolar range.
